Assay results taken from ChEMBL document CHEMBL4765470 (J Med Chem, 2021).
Non-standard residues stand in square brackets, D forms with d. Residues, ends and D or L forms follow the SMILES beside them. *: point of attachment. 1Nal = N[C@@H](Cc1cccc2ccccc12)C(=O)O; 2Nal = N[C@@H](Cc1ccc2ccccc2c1)C(=O)O; αMeF = C[C@](N)(Cc1ccccc1)C(=O)O; β3hF = N[C@H](CC(=O)O)Cc1ccccc1; Cha = N[C@@H](CC1CCCCC1)C(=O)O; Tle = CC(C)(C)[C@H](N)C(=O)O; Nle = CCCC[C@H](N)C(=O)O; Ac5c = NC1(C(=O)O)CCCC1; Bn = c1ccc(C*)cc1

How the values were obtained:
Rattus norvegicus [1] = experiment: Cardiorenal effect in Sprague-Dawley rat assessed as water intake level at 9.9 nmol/kg/hr dosed by continuous infusion via osmotic mini pumps […] (reference value: 3.3 mL/kg/hr); type: functional
Rattus norvegicus [2] = experiment: Cardiorenal effect in Sprague-Dawley rat assessed as urinary output level at 9.9 nmol/kg/hr dosed by continuous infusion via osmotic mini pumps […] (reference value: 1.3 mL/kg/hr); type: functional
Rattus norvegicus [3] = experiment: Cardiorenal effect in Sprague-Dawley rat assessed as increase left ventricular fractional shortening at 9.9 nmol/kg/hr dosed by continuous infusion via osmotic mini pumps measured after 24 hrs by echocardiography relative to base line in sham treated control; type: functional
[4] = Cardiorenal effect in Sprague-Dawley rat assessed as reduction in blood pressure at 72 nmol/kg, iv […]; type: organism-based; conditions: in vivo
Rattus norvegicus [5] = experiment: Cardiorenal effect in Sprague-Dawley rat assessed as increase left ventricular fractional shortening at 9.9 nmol/kg/hr dosed by continuous infusion via osmotic mini pumps measured after 6 hrs by echocardiography relative to base line in sham treated control; type: functional
Apelin receptor [6] = target: T1, Apelin receptor (Homo sapiens, UniProt P35414); experiment: Agonist activity at human APJ receptor expressed in HEK293T cells co-expressing PDZ-Rho-Gef-RLucll assessed as induction of Galpha12 effector (PDZ-RhoGEF) to the cell membrane incubated for 5 mins by BRET assay; type: functional, cell-based
T1 sequence (P35414 whole entry): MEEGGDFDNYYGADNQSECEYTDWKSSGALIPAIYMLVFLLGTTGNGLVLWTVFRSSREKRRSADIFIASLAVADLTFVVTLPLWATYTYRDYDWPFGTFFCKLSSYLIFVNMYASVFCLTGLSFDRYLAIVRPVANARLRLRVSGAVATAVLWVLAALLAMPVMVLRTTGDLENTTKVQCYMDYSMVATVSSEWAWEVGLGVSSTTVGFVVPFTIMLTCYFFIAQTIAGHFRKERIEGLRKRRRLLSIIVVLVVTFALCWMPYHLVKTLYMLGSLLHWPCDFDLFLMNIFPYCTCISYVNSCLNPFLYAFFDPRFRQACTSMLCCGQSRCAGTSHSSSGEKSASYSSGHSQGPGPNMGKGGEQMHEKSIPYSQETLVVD

Apelin receptor [7] = target: T1, Apelin receptor; experiment: Agonist activity at human APJ receptor expressed in HEK293 cells co-expressing Galpha(i1)-RlucII(91) assessed as induction of dissociation of Galpha(i1) from G-beta-gamma subunits incubated for 5 mins by BRET assay; type: cell-based
[8] = Cardiorenal effect in Sprague-Dawley rat assessed as reduction in blood pressure at 5 nmol/kg, iv […]; type: organism-based; conditions: in vivo
Apelin receptor [9] = target: T1, Apelin receptor; experiment: Agonist activity at human APJ receptor expressed in HEK293 cells co-expressing Rlucll-beta-arrestin2 assessed as induction of beta-arrestin2 recruitment to APJ incubated for 30 mins by BRET assay; type: cell-based
Apelin receptor [10] = target: T1, Apelin receptor; experiment: Displacement of [125I] [NIe75, Tyr77]Pyr-apelin-13 from YFP-tagged human APJ receptor expressed in HEK293 cell membranes incubated for 1 hr by gamma counting based Cheng-Prusoff equation analysis
[11] = target: T2, Apelin receptor (Homo sapiens) (UniProt P35414); experiment: Agonist activity at human APJ receptor expressed in HEK293 cells co-expressing […] assessed as induction of Galpha12 effector (PDZ-RhoGEF) to the cell membrane incubated for 5 mins by BRET assay relative to control; type: functional, cell-based; conditions: filed as agonist
T2 sequence (whole entry): T1 sequence (P35414 whole entry)

Row | SMILES | EC50 (Apelin receptor [6]) [nM] | EC50 (Apelin receptor [7]) [nM] | EC50 (Apelin receptor [9]) [nM] | Ki (Apelin receptor [10]) [nM] | Emax [11] [%] | Activity (Rattus norvegicus [1]) [mL/h/kg] | Activity (Rattus norvegicus [2]) [mL/h/kg] | Activity (Rattus norvegicus [3]) [%] | Activity [4] | Activity (Rattus norvegicus [5]) [%] | Activity [8]
1 | CCCC[C@H](N)C(=O)N1CCC[C@H]1C(=O)N[C@@H](CC(C)C)C(=O)N[C@@H](Cc1cnc[nH]1)C(=O)N[C@@H](CO)C(=O)N[C@@H](CCCNC(=N)N)C(=O)N[C@H](C(=O)N1CCC[C@H]1C(=O)N[C@@H](Cc1ccccc1)C(=O)N1CCC[C@H]1C(=O)O)C(C)C | – | – | – | – | – | 4.5 | 2.7 | 19 | Non-Toxic | 11 | –
2 | CSCC[C@H](NC(=O)[C@@H](NC(=O)[C@H](CC(C)C)NC(=O)[C@H](CC(N)=O)NC(=O)[C@@H](NC(=O)[C@@H]1CCCN1C(=O)[C@H](CCCNC(=N)N)NC(=O)[C@@H]1CCC(=O)N1)C(C)C)[C@@H](C)O)C(=O)N[C@@H](C)C(=O)N[C@@H](CCCNC(=N)N)C(=O)N[C@@H](CCCCN)C(=O)N[C@@H](CC(C)C)C(=O)N[C@@H](CCCNC(=N)N)C(=O)N[C@@H](CCCCN)C(=O)N[C@@H](Cc1cnc[nH]1)C(=O)N[C@@H](CC(N)=O)C(=O)N[C@H]1CSSC[C@@H](C(=O)N[C@@H](CCSC)C(=O)N2CCC[C@H]2C(=O)N[C@@H](CC(C)C)C(=O)N[C@@H](Cc2cnc[nH]2)C(=O)N[C@@H](CO)C(=O)N[C@@H](CCCNC(=N)N)C(=O)N[C@H](C(=O)N2CCC[C@H]2C(=O)N[C@@H](Cc2ccccc2)C(=O)N2CCC[C@H]2C(=O)O)C(C)C)NC(=O)[C@H](CCCNC(=N)N)NC(=O)[C@H](CCCNC(=N)N)NC(=O)[C@H](CCC(N)=O)NC(=O)[C@H](CC(C)C)NC1=O | 25 | 5.3 | 45 | 0.19 | – | 5 | 3.5 | 27 | – | 18 | <= 40 mmHg
3 | CCCC[C@H](N)C(=O)N1CCC[C@H]1C(=O)N[C@@H](CC(C)C)C(=O)N[C@@H](Cc1cnc[nH]1)C(=O)N[C@@H](CO)C(=O)N[C@@H](CCCNC(=N)N)C(=O)N[C@H](C(=O)N1CCC[C@H]1C(=O)N[C@@H](Cc1ccccc1)C(=O)N[C@@H](Cc1ccccc1)C(=O)O)C(C)C (H-[Nle]PLHSRVPFF-OH) | 43 | 2.3 | 53 | 4 | – | – | – | – | – | – | –
4 | CCCC[C@H](N)C(=O)N1CCC[C@H]1C(=O)N[C@@H](CC(C)C)C(=O)N[C@@H](Cc1cnc[nH]1)C(=O)N[C@@H](CO)C(=O)N[C@@H](CCCNC(=N)N)C(=O)N[C@H](C(=O)N1CCC[C@H]1C(=O)N[C@@H](Cc1ccccc1)C(=O)N[C@@H](CC(C)C)C(=O)O)C(C)C (H-[Nle]PLHSRVPFL-OH) | 525 | 4.6 | 149 | 20 | – | – | – | – | – | – | –
5 | CCCC[C@H](N)C(=O)N1CCC[C@H]1C(=O)N[C@@H](CC(C)C)C(=O)N[C@@H](Cc1cnc[nH]1)C(=O)N[C@@H](CO)C(=O)N[C@@H](CCCNC(=N)N)C(=O)N[C@H](C(=O)N1CCC[C@H]1C(=O)N[C@@H](Cc1ccccc1)C(=O)N[C@@H](Cc1ccc(OCc2ccccc2)cc1)C(=O)O)C(C)C (H-[Nle]PLHSRVPFY(Bn)-OH) | 1520 | 19 | 381 | 19 | – | – | – | – | – | – | –
6 | CCCC[C@H](N)C(=O)N1CCC[C@H]1C(=O)N[C@@H](CC(C)C)C(=O)N[C@@H](Cc1cnc[nH]1)C(=O)N[C@@H](CO)C(=O)N[C@@H](CCCNC(=N)N)C(=O)N[C@H](C(=O)N1CCC[C@H]1C(=O)N[C@@H](Cc1ccccc1)C(=O)N[C@@H](Cc1ccc2ccccc2c1)C(=O)O)C(C)C (H-[Nle]PLHSRVPF[2Nal]-OH) | 37 | 3.8 | 107 | 3.9 | – | – | – | – | – | – | –
7 | CCCC[C@H](N)C(=O)N1CCC[C@H]1C(=O)NC1(C(=O)N[C@@H](Cc2cnc[nH]2)C(=O)N[C@@H](CO)C(=O)N[C@@H](CCCNC(=N)N)C(=O)N[C@H](C(=O)N2CCC[C@H]2C(=O)N[C@@H](Cc2ccccc2)C(=O)N2CCC[C@H]2C(=O)O)C(C)C)CCCC1 (H-[Nle]P[Ac5c]HSRVPFP-OH) | 70 | 1.2 | 79 | 2.4 | – | – | – | – | – | – | –
8 | CCCC[C@H](N)C(=O)N1CCC[C@H]1C(=O)N[C@@](C)(Cc1ccccc1)C(=O)N[C@@H](Cc1cnc[nH]1)C(=O)N[C@@H](CO)C(=O)N[C@@H](CCCNC(=N)N)C(=O)N[C@H](C(=O)N1CCC[C@H]1C(=O)N[C@@H](Cc1ccccc1)C(=O)N1CCC[C@H]1C(=O)O)C(C)C (H-[Nle]P[αMeF]HSRVPFP-OH) | 515 | 6.4 | 189 | 25 | – | – | – | – | – | – | –

The next lines start with results.

Row | EC50 (Apelin receptor [6]) [nM] | EC50 (Apelin receptor [7]) [nM] | EC50 (Apelin receptor [9]) [nM] | Ki (Apelin receptor [10]) [nM] | Emax [11] [%] | SMILES | Activity (Rattus norvegicus [1]) [mL/h/kg] | Activity (Rattus norvegicus [2]) [mL/h/kg] | Activity (Rattus norvegicus [3]) [%] | Activity [4] | Activity (Rattus norvegicus [5]) [%] | Activity [8]
9 | 30 | 4.5 | 123 | 13 | – | CCCC[C@H](N)C(=O)N1CCC[C@H]1C(=O)N[C@@H](CC(C)C)C(=O)N[C@@H](Cc1cnc[nH]1)C(=O)N[C@@H](CO)C(=O)N[C@@H](CCCNC(=N)N)C(=O)N[C@H](C(=O)N1CCC[C@H]1C(=O)N[C@@H](Cc1ccccc1)C(=O)N[C@@H](Cc1cccc2ccccc12)C(=O)O)C(C)C (H-[Nle]PLHSRVPF[1Nal]-OH) | – | – | – | – | – | –
10 | 1040 | 23 | 537 | 21 | – | CCCC[C@H](N)C(=O)N1CCC[C@H]1C(=O)N[C@@H](CC(C)C)C(=O)N[C@@H](Cc1cnc[nH]1)C(=O)N[C@@H](CO)C(=O)N[C@@H](CCCNC(=N)N)C(=O)N[C@H](C(=O)N1CCC[C@H]1C(=O)N[C@@H](Cc1cccc2ccccc12)C(=O)N1CCC[C@H]1C(=O)O)C(C)C (H-[Nle]PLHSRVP[1Nal]P-OH) | – | – | – | – | – | –
11 | 152 | 7 | 155 | 16 | – | CCCC[C@H](N)C(=O)N1CCC[C@H]1C(=O)N[C@@H](CC(C)C)C(=O)N[C@@H](Cc1cnc[nH]1)C(=O)N[C@@H](CO)C(=O)N[C@@H](CCCNC(=N)N)C(=O)N[C@H](C(=O)N1CCC[C@H]1C(=O)N[C@@H](Cc1ccc2ccccc2c1)C(=O)N1CCC[C@H]1C(=O)O)C(C)C (H-[Nle]PLHSRVP[2Nal]P-OH) | – | – | – | – | – | –
12 | 54 | 17 | 940 | 4 | 43 | CCCC[C@H](N)C(=O)N1CCC[C@H]1C(=O)N[C@@H](CC(C)C)C(=O)N[C@@H](Cc1cnc[nH]1)C(=O)N[C@@H](CO)C(=O)N[C@@H](CCCNC(=N)N)C(=O)N[C@H](C(=O)N1CCC[C@H]1C(=O)N[C@@H](CC1CCCCC1)C(=O)N1CCC[C@H]1C(=O)O)C(C)C (H-[Nle]PLHSRVP[Cha]P-OH) | – | – | – | – | – | –
13 | 740 | 5.1 | 182 | 19 | – | CCCC[C@H](N)C(=O)N1CCC[C@H]1C(=O)N[C@@H](CC(C)C)C(=O)N[C@@H](Cc1cnc[nH]1)C(=O)N[C@@H](CO)C(=O)N[C@@H](CCCNC(=N)N)C(=O)N[C@H](C(=O)N1CCC[C@H]1C(=O)N[C@H](CC(=O)O)Cc1ccccc1)C(C)C (H-[Nle]PLHSRVP[β3hF]-OH) | – | – | – | – | – | –
14 | 94 | 2.8 | 120 | 4 | – | CCCC[C@H](N)C(=O)N1CCC[C@H]1C(=O)N[C@@H](CC1CCCCC1)C(=O)N[C@@H](Cc1cnc[nH]1)C(=O)N[C@@H](CO)C(=O)N[C@@H](CCCNC(=N)N)C(=O)N[C@H](C(=O)N1CCC[C@H]1C(=O)N[C@@H](Cc1ccccc1)C(=O)N1CCC[C@H]1C(=O)O)C(C)C (H-[Nle]P[Cha]HSRVPFP-OH) | – | – | – | – | – | –
15 | 795 | 2.4 | 401 | 21 | – | CCCC[C@H](N)C(=O)N1CCC[C@H]1C(=O)N[C@H](C(=O)N[C@@H](Cc1cnc[nH]1)C(=O)N[C@@H](CO)C(=O)N[C@@H](CCCNC(=N)N)C(=O)N[C@H](C(=O)N1CCC[C@H]1C(=O)N[C@@H](Cc1ccccc1)C(=O)N1CCC[C@H]1C(=O)O)C(C)C)C(C)(C)C (H-[Nle]P[Tle]HSRVPFP-OH) | – | – | – | – | – | –
